From ChEMBL document CHEMBL1201862, “PubChem BioAssay data set” (2004)
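Five concentrations, 48 hours, 96-well plates. Here, GI50 denotes the concentration required for 50% inhibition of growth.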 Activity calls are given as the source filed them. No stated cut-off is given here; in the data, active = GI50 up to about 1.1 µM and inactive = higher.

Assays:
Assay in all cases: NCI tumour cell line growth inhibition, 48 h
786-0 = system: 786-0
A498 = system: A498
CCRF-CEM = system: CCRF-CEM
DU-145 = system: DU-145
HCT-116 = system: HCT-116
Hs-578T = system: Hs-578T
IGROV-1 = system: IGROV-1
K562 = system: K562
KM12 = system: KM12
LOX IMVI = system: LOX IMVI
MDA-MB-435 = system: MDA-MB-435
MDA-N = system: MDA-N
NCI/ADR-RES = system: NCI/ADR-RES
OVCAR-5 = system: OVCAR-5
PC-3 = system: PC-3
RPMI-8226 = system: RPMI-8226
SF-268 = system: SF-268
SK-MEL-28 = system: SK-MEL-28
SK-MEL-5 = system: SK-MEL-5
UACC-257 = system: UACC-257

Measured: GI50

C#C[C@]1(O)CC[C@H]2[C@@H]3CCC4=C/C(=N/OC(=O)c5cccc6cc7ccccc7nc56)CC[C@@H]4[C@H]3CC[C@@]21CC
inactive: 786-0 > 100 µM | A498 > 100 µM | CCRF-CEM 52.2 µM | DU-145 > 100 µM | HCT-116 > 100 µM | Hs-578T > 100 µM | IGROV-1 > 100 µM | K562 > 100 µM | KM12 > 100 µM | LOX IMVI > 100 µM | MDA-MB-435 > 100 µM | MDA-N > 100 µM | NCI/ADR-RES > 100 µM | OVCAR-5 > 100 µM | PC-3 > 100 µM | RPMI-8226 > 100 µM | SF-268 > 100 µM | SK-MEL-28 > 100 µM | SK-MEL-5 > 100 µM | UACC-257 > 100 µM

CC(O)C1(CNc2cc(Cl)nc(N)n2)CC(CCc2ccccc2)C1 (stereo not given)
inactive: 786-0 18.2 µM | A498 13.7 µM | CCRF-CEM 17.6 µM | DU-145 16.4 µM | HCT-116 8.28 µM | Hs-578T 17.3 µM | IGROV-1 13.6 µM | K562 6.78 µM | KM12 14.5 µM | LOX IMVI 3.92 µM | MDA-MB-435 13.7 µM | MDA-N 12.9 µM | NCI/ADR-RES 4.1 µM | OVCAR-5 17.2 µM | PC-3 11.6 µM | RPMI-8226 11.6 µM | SF-268 14.9 µM | SK-MEL-28 14.3 µM | SK-MEL-5 5.71 µM | UACC-257 4.56 µM

CC(Br)C(=O)Nc1ccc(C(=O)O)c(O)c1 (stereo not given)
inactive: 786-0 37.6 µM | A498 > 100 µM | CCRF-CEM 15.8 µM | DU-145 > 100 µM | HCT-116 50.7 µM | Hs-578T 33.4 µM | IGROV-1 > 100 µM | K562 49.8 µM | KM12 70.8 µM | LOX IMVI 34.5 µM | MDA-MB-435 34.4 µM | MDA-N 34.6 µM | NCI/ADR-RES 49.5 µM | OVCAR-5 > 100 µM | PC-3 34 µM | RPMI-8226 > 100 µM | SF-268 36.3 µM | SK-MEL-28 47.4 µM | SK-MEL-5 62.5 µM | UACC-257 42.4 µM

O=c1[nH]nc(Cc2ccccc2)n1/N=C/c1ccc(/C=N/n2c(Cc3ccccc3)n[nH]c2=O)cc1
inactive: 786-0 > 100 µM | A498 > 100 µM | CCRF-CEM 23.8 µM | DU-145 > 100 µM | HCT-116 > 100 µM | Hs-578T > 100 µM | IGROV-1 > 100 µM | K562 20.2 µM | KM12 > 100 µM | LOX IMVI > 100 µM | MDA-MB-435 > 100 µM | MDA-N > 100 µM | NCI/ADR-RES > 100 µM | OVCAR-5 > 100 µM | PC-3 > 100 µM | RPMI-8226 > 100 µM | SF-268 > 100 µM | SK-MEL-28 > 100 µM | SK-MEL-5 > 100 µM | UACC-257 > 100 µM
